Laboratory results: ChEMBL document CHEMBL5291721, “A preclinical secondary pharmacology resource illuminates target-adverse drug reaction associations of marketed drugs” (Nat Commun, 2023)

Assays:
[1] = target: T1, Androgen receptor (Rattus norvegicus, UniProt P15207); type: functional
T1 sequence (P15207 whole entry): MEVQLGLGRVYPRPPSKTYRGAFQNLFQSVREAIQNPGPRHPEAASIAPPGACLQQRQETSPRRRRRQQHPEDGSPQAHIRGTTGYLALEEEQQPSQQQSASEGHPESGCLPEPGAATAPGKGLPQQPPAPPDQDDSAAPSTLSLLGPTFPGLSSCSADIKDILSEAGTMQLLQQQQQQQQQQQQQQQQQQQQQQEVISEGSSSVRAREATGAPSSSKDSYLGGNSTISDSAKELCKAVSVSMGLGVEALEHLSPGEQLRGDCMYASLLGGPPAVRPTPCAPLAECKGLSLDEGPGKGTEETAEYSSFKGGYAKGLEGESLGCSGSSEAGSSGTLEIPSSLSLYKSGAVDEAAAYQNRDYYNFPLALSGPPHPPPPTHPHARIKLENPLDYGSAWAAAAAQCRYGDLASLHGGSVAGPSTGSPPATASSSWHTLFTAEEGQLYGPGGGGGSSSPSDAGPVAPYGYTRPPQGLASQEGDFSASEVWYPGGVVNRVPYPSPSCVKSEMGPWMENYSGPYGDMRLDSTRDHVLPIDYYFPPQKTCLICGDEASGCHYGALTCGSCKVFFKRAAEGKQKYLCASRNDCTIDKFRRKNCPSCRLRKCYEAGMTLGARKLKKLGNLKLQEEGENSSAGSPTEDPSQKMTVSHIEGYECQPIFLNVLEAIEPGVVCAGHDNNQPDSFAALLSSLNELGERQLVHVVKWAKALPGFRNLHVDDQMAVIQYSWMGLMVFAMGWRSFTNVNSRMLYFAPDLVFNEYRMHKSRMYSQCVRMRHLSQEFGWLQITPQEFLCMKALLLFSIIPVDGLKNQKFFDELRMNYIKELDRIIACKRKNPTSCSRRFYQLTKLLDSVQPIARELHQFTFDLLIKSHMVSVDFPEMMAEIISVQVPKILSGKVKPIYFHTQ

[2] = target: Glucagon receptor (Homo sapiens, UniProt P47871)
Chain of Glucagon receptor (P47871 whole entry): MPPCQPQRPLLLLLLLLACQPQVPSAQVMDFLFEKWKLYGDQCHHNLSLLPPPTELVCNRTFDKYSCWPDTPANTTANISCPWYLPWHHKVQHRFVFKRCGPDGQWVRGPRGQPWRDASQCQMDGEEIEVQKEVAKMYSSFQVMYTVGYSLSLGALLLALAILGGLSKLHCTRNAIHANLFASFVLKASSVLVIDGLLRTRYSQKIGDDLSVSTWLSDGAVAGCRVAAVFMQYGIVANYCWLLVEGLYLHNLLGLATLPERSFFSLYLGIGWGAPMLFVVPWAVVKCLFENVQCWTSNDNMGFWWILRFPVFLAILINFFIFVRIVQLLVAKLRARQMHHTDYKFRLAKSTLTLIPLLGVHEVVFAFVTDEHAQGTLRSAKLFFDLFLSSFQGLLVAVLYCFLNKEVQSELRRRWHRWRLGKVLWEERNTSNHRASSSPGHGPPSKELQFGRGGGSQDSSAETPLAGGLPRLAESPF

[3] = target: T2, Progesterone receptor (Homo sapiens, UniProt P06401)
T2 sequence (P06401 whole entry): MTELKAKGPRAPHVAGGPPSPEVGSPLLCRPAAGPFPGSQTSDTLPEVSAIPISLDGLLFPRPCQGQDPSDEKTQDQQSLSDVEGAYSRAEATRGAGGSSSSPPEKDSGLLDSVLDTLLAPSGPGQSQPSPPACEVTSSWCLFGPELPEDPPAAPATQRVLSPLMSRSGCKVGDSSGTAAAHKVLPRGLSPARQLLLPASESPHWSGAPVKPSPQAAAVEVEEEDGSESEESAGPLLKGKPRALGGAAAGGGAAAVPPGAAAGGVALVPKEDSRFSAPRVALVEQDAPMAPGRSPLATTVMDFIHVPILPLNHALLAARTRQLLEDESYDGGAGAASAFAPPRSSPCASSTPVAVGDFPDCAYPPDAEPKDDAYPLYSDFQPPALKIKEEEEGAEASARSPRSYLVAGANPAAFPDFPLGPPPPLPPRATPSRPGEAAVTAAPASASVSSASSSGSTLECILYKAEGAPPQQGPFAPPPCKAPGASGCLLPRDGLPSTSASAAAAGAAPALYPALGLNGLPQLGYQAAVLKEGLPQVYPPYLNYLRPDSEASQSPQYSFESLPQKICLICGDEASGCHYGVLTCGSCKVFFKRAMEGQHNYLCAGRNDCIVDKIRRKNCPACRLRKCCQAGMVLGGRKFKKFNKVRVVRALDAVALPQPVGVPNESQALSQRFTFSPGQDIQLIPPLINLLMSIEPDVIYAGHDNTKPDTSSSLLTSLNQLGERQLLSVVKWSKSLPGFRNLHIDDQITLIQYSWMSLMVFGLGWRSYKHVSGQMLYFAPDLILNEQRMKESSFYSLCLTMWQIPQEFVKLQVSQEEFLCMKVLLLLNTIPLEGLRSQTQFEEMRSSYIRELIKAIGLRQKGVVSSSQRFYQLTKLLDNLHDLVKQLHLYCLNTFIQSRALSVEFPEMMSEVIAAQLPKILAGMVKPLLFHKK

[4] = target: T3, Alpha-2A adrenergic receptor (Homo sapiens, UniProt P08913)
T3 sequence (P08913 whole entry): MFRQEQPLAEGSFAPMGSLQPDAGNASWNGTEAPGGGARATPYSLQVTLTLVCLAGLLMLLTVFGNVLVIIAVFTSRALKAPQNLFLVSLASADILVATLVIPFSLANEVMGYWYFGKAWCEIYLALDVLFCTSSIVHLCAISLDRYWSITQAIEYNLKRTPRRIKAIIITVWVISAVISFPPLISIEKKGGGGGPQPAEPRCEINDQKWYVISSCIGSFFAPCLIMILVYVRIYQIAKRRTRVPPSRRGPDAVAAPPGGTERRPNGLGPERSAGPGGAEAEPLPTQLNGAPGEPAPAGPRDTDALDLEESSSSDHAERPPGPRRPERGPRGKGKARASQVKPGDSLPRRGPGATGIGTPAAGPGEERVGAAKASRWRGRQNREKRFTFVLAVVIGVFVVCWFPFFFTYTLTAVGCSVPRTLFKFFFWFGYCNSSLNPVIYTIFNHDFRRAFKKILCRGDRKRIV

[5] = target: T1, Androgen receptor
[6] = target: T4, Neuropeptide Y receptor type 2 (Homo sapiens, UniProt P49146)
T4 sequence (P49146 whole entry): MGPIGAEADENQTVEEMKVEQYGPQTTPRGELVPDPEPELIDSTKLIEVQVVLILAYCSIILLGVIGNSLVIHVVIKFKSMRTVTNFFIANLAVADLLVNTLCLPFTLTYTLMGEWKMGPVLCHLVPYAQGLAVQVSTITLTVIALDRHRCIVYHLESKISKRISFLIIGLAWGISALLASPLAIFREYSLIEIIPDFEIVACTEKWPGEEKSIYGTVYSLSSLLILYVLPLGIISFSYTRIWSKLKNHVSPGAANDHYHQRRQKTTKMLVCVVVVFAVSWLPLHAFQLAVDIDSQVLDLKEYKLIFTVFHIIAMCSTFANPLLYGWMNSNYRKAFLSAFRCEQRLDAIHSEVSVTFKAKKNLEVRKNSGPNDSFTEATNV
Also: assay procedure not described here.

Row | Compound | AC50 [1] | AC50 [3] | AC50 [5] | also measured
1 | CC(=O)OCC(=O)[C@@]1(O)CC[C@H]2[C@@H]3CCC4=CC(=O)CC[C@]4(C)[C@@]3(F)[C@@H](O)C[C@@]21C [FLUDROCORTISONE ACETATE] | > 30 µM |  |  | 
2 | CN1C(=O)CN=C(c2ccccc2F)c2cc([N+](=O)[O-])ccc21 [FLUNITRAZEPAM] |  | > 10 µM | > 30 µM | AC50 [2]: > 30 µM; AC50 [4]: > 10 µM; AC50 [6]: > 30 µM
3 | Cc1ccc(S(=O)(=O)NC(=O)N[C@H]2[C@H]3CC[C@@](C)([C@H]2O)C3(C)C)cc1 [GLIBORNURIDE] | > 30 µM |  |  | 
4 | CN1C2CCCC1CC(NC(=O)c1nn(C)c3ccccc13)C2 (stereo not given) [GRANISETRON] |  | > 30 µM |  | AC50 [2]: > 30 µM; AC50 [4]: > 10 µM; AC50 [6]: > 30 µM
5 | N=C(N)NC(=O)Cc1c(Cl)cccc1Cl [GUANFACINE] |  | > 30 µM |  | 
6 | COc1ccc2c3c1O[C@H]1C(=O)CC[C@H]4[C@@H](C2)N(C)CC[C@]314 [HYDROCODONE] |  | > 30 µM |  | AC50 [2]: > 30 µM; AC50 [4]: > 10 µM; AC50 [6]: > 30 µM
7 | CC1Cc2ccccc2N1NC(=O)c1ccc(Cl)c(S(N)(=O)=O)c1 (stereo not given) [INDAPAMIDE] |  |  |  | AC50 [4]: > 10 µM
8 | CCC(=O)O[C@H](CC(=O)O)C[N+](C)(C)C [LEVOCARNITINE PROPIONATE] | > 30 µM |  |  | 
9 | CCN(CC)CC(=O)Nc1c(C)cccc1C [LIDOCAINE] |  | > 30 µM |  | AC50 [2]: > 30 µM; AC50 [6]: > 30 µM
10 | O=C(O)c1nn(Cc2ccc(Cl)cc2Cl)c2ccccc12 [LONIDAMINE] | > 30 µM |  |  | 
11 | Nc1cc(N2CCCCC2)nc(N)[n+]1[O-] [MINOXIDIL] |  | > 30 µM | > 30 µM | 
12 | CC1NCCOC1c1ccccc1 (stereo not given) [PHENMETRAZINE] |  | > 30 µM |  | AC50 [2]: > 30 µM; AC50 [6]: > 30 µM
13 | CC(C)(N)Cc1ccccc1 [PHENTERMINE] |  | > 30 µM | > 30 µM | AC50 [2]: > 30 µM; AC50 [6]: > 30 µM
14 | CCOC(=O)O[C@]1(C(=O)COC(=O)CC)CC[C@H]2[C@@H]3CCC4=CC(=O)C=C[C@]4(C)[C@H]3[C@@H](O)C[C@@]21C [PREDNICARBATE] |  |  | 0.71 µM | 
15 | CCC(=O)[C@@]1(C)[C@H](C)C[C@H]2[C@@H]3CCC4=CC(=O)C=C[C@]4(C)[C@H]3[C@@H](O)C[C@@]21C [RIMEXOLONE] |  |  | > 30 µM | 
16 | CCCCOC(=O)C(=O)Nc1cccc(-c2nnn[nH]2)c1 [TAZANOLAST] | > 30 µM |  |  | 
17 | CC(C(=O)O)c1ccc(C(=O)c2ccccc2)s1 (stereo not given) [TIAPROFENIC ACID] |  |  | > 10 µM | 
18 | CCCCC[C@H](O)CC[C@@H]1[C@H]2Cc3cccc(OCC(=O)O)c3C[C@H]2C[C@H]1O [TREPROSTINIL] | > 30 µM |  |  | 
19 | CN(C)CCOCC(=O)NC12CC3CC(CC(C3)C1)C2 [TROMANTADINE] | > 30 µM |  |  | 
20 | OCC(CO)N[C@H]1C[C@](O)(CO)[C@@H](O)[C@H](O)[C@H]1O [VOGLIBOSE] |  |  | > 30 µM | 
21 | TEPRENONE |  | > 30 µM | > 30 µM | 
